Laboratory results from paper PMC10353549 (ACS Pharmacology & Translational Science, 2023).
“And” between values parts separate entries of the source, which are not always exact repeats. Equal values may be shown once. Read-outs that look alike come from different tables or passages of the source. Marks after values point to notes of the source that are not given here. Where a SMILES comes first, the peptide text is derived from it. [ ]: non-standard residue; d: D form. The star is where a group is joined. 1Nal = N[C@@H](Cc1cccc2ccccc12)C(=O)O; Nicotinoyl(6-F) = O=C(c1ccc(F)nc1)*; Cha = N[C@@H](CC1CCCCC1)C(=O)O; NMeS = CN[C@@H](CO)C(=O)O; hSer = N[C@@H](CCO)C(=O)O; Nle = CCCC[C@H](N)C(=O)O; Octanoyl = CCCCCCCC(=O)*; Abu = CC[C@H](N)C(=O)O; Dap = NC[C@H](N)C(=O)O; Inp = O=C(O)C1CCNCC1

Tests used:
[1] = Human liver S9 fraction stability; type: in vitro ADME; conditions: for half-life at 3 μM: human, pooled human liver S9 fraction
[2] = target: T1, growth hormone secretagogue receptor 1a (GHSR) (Homo sapiens, UniProt Q92847); assay: biochemical
[3] = Human serum stability; type: in vitro ADME
[4] = human serum from human male AB plasma; conditions: 37 °C, up to 24 h
[5] = Chemical stability in buffer; type: physicochemical; conditions: for chemical stability in buffer: 37 °C, over 24 h
[6] = target: T1, growth hormone secretagogue receptor 1a (GHSR); conditions: read-out: IC50 (GHSR affinity); previous work; cited from earlier work
Target sequence in this assay (Q92847 whole entry, species assumed): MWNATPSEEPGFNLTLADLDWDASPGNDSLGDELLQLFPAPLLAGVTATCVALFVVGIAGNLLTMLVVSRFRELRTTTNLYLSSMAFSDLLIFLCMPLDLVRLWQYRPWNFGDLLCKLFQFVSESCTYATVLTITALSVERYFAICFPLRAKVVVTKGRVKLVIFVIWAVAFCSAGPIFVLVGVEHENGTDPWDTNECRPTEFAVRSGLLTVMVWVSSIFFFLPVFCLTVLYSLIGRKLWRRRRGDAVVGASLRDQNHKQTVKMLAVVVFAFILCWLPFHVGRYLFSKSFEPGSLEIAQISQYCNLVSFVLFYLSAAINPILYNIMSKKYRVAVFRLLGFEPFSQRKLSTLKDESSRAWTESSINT

[7] = human serum; cited from earlier work
[8] = target: GHSR (Homo sapiens, UniProt Q92847); assay: cell-based
[9] = target: growth hormone secretagogue receptor 1a, eYFP tagged (GHSR-eYFP) (UniProt Q92847); assay: radioligand binding
[10] = pH 7.4, S9 t1/2, pooled human liver S9 fraction 1 mg/mL, peptide 3 μM, 37 °C, over 4 h
[11] = human liver S9 fraction, over 4 h

Sequence of GHSR (Q92847 whole entry, species assumed): as above
Sequence of growth hormone secretagogue receptor 1a, eYFP tagged (GHSR-eYFP) (Q92847 whole entry): as the sequence (Q92847 whole entry, species assumed) above

Compound	half-life at 3 μM [1, 10] [h]	IC50 [2] [nM]	other results
CC(C)C[C@H](NC(=O)[C@H](Cc1cccc2ccccc12)NC(=O)[C@H](CNC(=O)c1ccc(F)nc1)NC(=O)[C@H](CO)NC(=O)C1CCNCC1)C(=O)N[C@@H](C(=O)N1CCC[C@H]1C(=O)N[C@H](C(N)=O)[C@@H](C)O)[C@H](C)O [compound 12, Inp-S-Dpr(6-FN)-1Nal-LtPT-NH2] (H-[Inp]S[Dap](Nicotinoyl(6-F))[1Nal]L[dT]PT-NH2)	> 4	2.52 ± 0.32	–
CC(C)C[C@@H](NC(=O)[C@H](Cc1cccc2ccccc12)NC(=O)[C@H](CNC(=O)c1ccc(F)nc1)NC(=O)[C@H](CO)NC(=O)C1CCNCC1)C(=O)N[C@@H](CO)C(=O)N1CCC[C@H]1C(=O)N[C@H](C(N)=O)[C@@H](C)O [compound 9, Inp-S-Dpr(6-FN)-1Nal-lSPT-NH2] (H-[Inp]S[Dap](Nicotinoyl(6-F))[1Nal][dL]SPT-NH2)	> 4	56.5 ± 6.5	stability in human serum ([3]; human serum, over 24 h): completely stable; stability in human liver S9 fraction [1, 11]: completely stable
CC(C)C[C@H](NC(=O)[C@H](Cc1cccc2ccccc12)NC(=O)[C@H](CNC(=O)c1ccc(F)nc1)NC(=O)[C@H](CO)NC(=O)C1CCNCC1)C(=O)N[C@H](C(=O)N1CCC[C@H]1C(=O)N[C@H](C(N)=O)[C@@H](C)O)[C@@H](C)O [compound 16, Inp-S-Dpr(6-FN)-1Nal-LTPT-NH2] (H-[Inp]S[Dap](Nicotinoyl(6-F))[1Nal]LTPT-NH2)	1.25	0.62 ± 0.1	–
Inp-S-Dpr(6-FN)-1Nal-L-Dpr-PT-NH2	–	–	not cleaved [4]: full stability over 24 h
CC(C)C[C@H](NC(=O)[C@H](Cc1cccc2ccccc12)NC(=O)[C@H](CNC(=O)c1ccc(F)nc1)NC(=O)[C@H](CO)NC(=O)C1CCNCC1)C(=O)N[C@@H](CC(N)=O)C(=O)N1CCC[C@H]1C(=O)N[C@H](C(N)=O)[C@@H](C)O [compound 18, Inp-S-Dpr(6-FN)-1Nal-LNPT-NH2] (H-[Inp]S[Dap](Nicotinoyl(6-F))[1Nal]LNPT-NH2)	> 4	1.9 ± 0.56	–
CC(C)C[C@H](NC(=O)[C@H](Cc1cccc2ccccc12)NC(=O)[C@H](CNC(=O)c1ccc(F)nc1)NC(=O)[C@H](CO)NC(=O)C1CCNCC1)C(=O)N[C@H](CO)C(=O)N1CCC[C@H]1C(=O)N[C@H](C(N)=O)[C@@H](C)O [compound 10, Inp-S-Dpr(6-FN)-1Nal-LsPT-NH2] (H-[Inp]S[Dap](Nicotinoyl(6-F))[1Nal]L[dS]PT-NH2)	> 4	3.55 ± 0.25	–
CC(C)C[C@H](NC(=O)[C@H](Cc1cccc2ccccc12)NC(=O)[C@H](CNC(=O)c1ccc(F)nc1)NC(=O)[C@H](CO)NC(=O)C1CCNCC1)C(=O)N[C@@H](CO)C(=O)N1CCC[C@H]1C(=O)N[C@H](C(N)=O)[C@@H](C)O [compound 1, [Inp^1,Dpr^3(6-FN),1Nal^4,Thr^8]ghrelin(1–8) amide] (H-[Inp]S[Dap](Nicotinoyl(6-F))[1Nal]LSPT-NH2)	1.1	0.09	time after which peptide was completely degraded in human liver S9 fraction ([1]; human liver S9 fraction, 37 °C): 4 h; S9 t1/2 ([1]; pooled human liver S9 fraction 1 mg/mL, peptide 3 μM, 37 °C, over 4 h): 1.08 h; chemical stability in buffer [5]: chemically stable; remaining at 24 h, 1 mM ([5]; phosphate-buffered saline, pH 7.4): 100%; IC50 [6]: 0.11 nM; Serum t1/2 [7]: 4.7 ^a h; EC50 [8]: 8 nM
ghrelin(1–8) analogue 11, Inp-S-Dpr(6-FN)-1Nal-lsPT-NH2 (peptide)	–	–	IC50 [9]: 11.5 nM
C[C@@H](O)[C@H](NC(=O)[C@@H]1CCCN1C(=O)[C@H](CO)NC(=O)[C@H](CC1CCCCC1)NC(=O)[C@H](Cc1cccc2ccccc12)NC(=O)[C@H](CNC(=O)c1ccc(F)nc1)NC(=O)[C@H](CO)NC(=O)C1CCNCC1)C(N)=O [compound 14, Inp-S-Dpr(6-FN)-1Nal-Cha-SPT-NH2] (H-[Inp]S[Dap](Nicotinoyl(6-F))[1Nal][Cha]SPT-NH2)	1.18	1.88 ± 0.67	–
CCCCCCCC(=O)NC[C@H](NC(=O)[C@H](CO)NC(=O)CN)C(=O)N[C@@H](Cc1ccccc1)C(=O)N[C@@H](CC(C)C)C(=O)N[C@@H](CO)C(=O)N1CCC[C@H]1C(=O)N[C@@H](CCC(=O)O)C(=O)O [compound 2, [Dpr^3(n-octanoyl)]ghrelin(1–8)] (H-GS[Dap](Octanoyl)FLSPE-OH)	–	–	Serum t1/2 ([3]; 25% human serum in PBS pH 7.4, 37 °C, peptide 1 mM, over 24 h): 2.0 h; time after which peptide was completely degraded in human serum ([3]; human serum, 37 °C): 6 h; half-life at 3 μM ([1]; pH 7.4): 0.57 h; chemical stability in buffer [5]: chemically stable
CC(C)C[C@H](NC(=O)[C@H](Cc1cccc2ccccc12)NC(=O)[C@H](CNC(=O)c1ccc(F)nc1)NC(=O)[C@H](CO)NC(=O)C1CCNCC1)C(=O)N[C@@H](CCC(N)=O)C(=O)N1CCC[C@H]1C(=O)N[C@H](C(N)=O)[C@@H](C)O [compound 19, Inp-S-Dpr(6-FN)-1Nal-LQPT-NH2] (H-[Inp]S[Dap](Nicotinoyl(6-F))[1Nal]LQPT-NH2)	2.03	1.21 ± 0.12	–
Inp-S-Dpr(6-FN)-1Nal-L-S(N-Me)-PT-NH2	–	–	not cleaved [4]: stable; serum t1/2 >24 h
CC(C)C[C@H](NC(=O)[C@H](Cc1cccc2ccccc12)NC(=O)[C@H](CNC(=O)c1ccc(F)nc1)NC(=O)[C@H](CO)NC(=O)C1CCNCC1)C(=O)N[C@@H](CS)C(=O)N1CCC[C@H]1C(=O)N[C@H](C(N)=O)[C@@H](C)O [compound 15, Inp-S-Dpr(6-FN)-1Nal-LCPT-NH2] (H-[Inp]S[Dap](Nicotinoyl(6-F))[1Nal]LCPT-NH2)	0.95	7.15 ± 0.18	–
Inp-S-Dpr(6-FN)-1Nal-lSPT-NH2	–	–	not cleaved [4]: completely stable; serum t1/2 >24 h
CCCC[C@H](NC(=O)[C@H](Cc1cccc2ccccc12)NC(=O)[C@H](CNC(=O)c1ccc(F)nc1)NC(=O)[C@H](CO)NC(=O)C1CCNCC1)C(=O)N[C@@H](CO)C(=O)N1CCC[C@H]1C(=O)N[C@H](C(N)=O)[C@@H](C)O [compound 13, Inp-S-Dpr(6-FN)-1Nal-Nle-SPT-NH2] (H-[Inp]S[Dap](Nicotinoyl(6-F))[1Nal][Nle]SPT-NH2)	0.55	1.5 ± 0.27	–
CC(C)C[C@H](NC(=O)[C@H](Cc1cccc2ccccc12)NC(=O)[C@H](CNC(=O)c1ccc(F)nc1)NC(=O)[C@H](CO)NC(=O)C1CCNCC1)C(=O)N(C)[C@@H](CO)C(=O)N1CCC[C@H]1C(=O)N[C@H](C(N)=O)[C@@H](C)O [compound 22, Inp-S-Dpr(6-FN)-1Nal-L-S(N-Me)-PT-NH2] (H-[Inp]S[Dap](Nicotinoyl(6-F))[1Nal]L[NMeS]PT-NH2)	> 4	1.32 ± 0.58	stability in human serum ([3]; human serum, over 24 h): stable; stability in human liver S9 fraction [1, 11]: stable; EC50 [8]: 119 nM
CC(C)C[C@H](NC(=O)[C@H](Cc1cccc2ccccc12)NC(=O)[C@H](CNC(=O)c1ccc(F)nc1)NC(=O)[C@H](CO)NC(=O)C1CCNCC1)C(=O)N[C@@H](CCO)C(=O)N1CCC[C@H]1C(=O)N[C@H](C(N)=O)[C@@H](C)O [compound 17, Inp-S-Dpr(6-FN)-1Nal-L-Hse-PT-NH2] (H-[Inp]S[Dap](Nicotinoyl(6-F))[1Nal]L[hSer]PT-NH2)	1.4	1.43 ± 0.08	–
ghrelin(1–8) analogue 23, Inp-S-Dpr(6-FN)-1Nal-β-homoL-SPT-NH2 (peptide)	–	–	IC50 [9]: 2.11 nM
acylated human ghrelin(1–28) (ligand)	–	–	IC50 [9]: 2.48 nM
ghrelin(1–8) analogue 21, Inp-S-Dpr(6-FN)-1Nal-L-Dpr-PT-NH2 (peptide)	–	–	IC50 [9]: 0.32 nM
Inp-S-Dpr(6-FN)-1Nal-LSPT-NH2	–	–	cleaved bond [4]: Leu5-Ser6, first_seen, 30 min; fragment found [4]: 4; 1Nal-L-OH and 5; Inp-S-Dpr(6-FNA)-OH
CC[C@H](NC(=O)[C@H](CC(C)C)NC(=O)[C@H](Cc1cccc2ccccc12)NC(=O)[C@H](CNC(=O)c1ccc(F)nc1)NC(=O)[C@H](CO)NC(=O)C1CCNCC1)C(=O)N1CCC[C@H]1C(=O)N[C@H](C(N)=O)[C@@H](C)O [compound 20, Inp-S-Dpr(6-FN)-1Nal-L-Abu-PT-NH2] (H-[Inp]S[Dap](Nicotinoyl(6-F))[1Nal]L[Abu]PT-NH2)	0.46	2.54 ± 0.65	EC50 [8]: 30 nM
